Reference: US20260035376A1, “COMPOSITIONS AND METHODS FOR INHIBITION OF RAS” (TheRas, Inc., priority 2022, published 2026)

Assays:
[1] = target: T1, Avi-KRAS G12R (1-169) GppNHp/RAF1 RBD-3×FLAG (52-151) (Homo sapiens, UniProt P01116, G12R); experiment: Disrupting RAS-effector binding HTRF assay, Raf1 RBD-KRAS G12R-GppNHp; settings: PPI HTRF, 50 nM Avi-KRAS G12R GppNHp, compound titration 30-0.0045 μM; read-out: Raf1 RBD-KRAS G12R-GppNHp disruption
T1 construct: 50 nM Avi-KRAS G12R (1-169) GppNHp/RAF1 RBD-3×FLAG (52-151)
T1 sequence (P01116 1-169 isoform P01116-2 G12R limits assumed): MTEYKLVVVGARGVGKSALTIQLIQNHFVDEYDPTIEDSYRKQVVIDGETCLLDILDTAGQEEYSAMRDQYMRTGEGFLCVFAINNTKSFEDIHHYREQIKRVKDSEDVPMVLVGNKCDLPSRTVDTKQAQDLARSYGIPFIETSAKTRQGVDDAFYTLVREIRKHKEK

[2] = target: T2, Avi-KRAS WT (1-169) GppNHp/RAF1 RBD-3×FLAG (52-151) (Homo sapiens, UniProt P01116); experiment: Disrupting RAS-effector binding HTRF assay, Raf1 RBD-KRAS WT-GppNHp; settings: PPI HTRF, 50 nM Avi-KRAS WT GppNHp, compound titration 30-0.0045 μM; read-out: Raf1 RBD-KRAS WT-GppNHp disruption
T2 construct: 50 nM Avi-KRAS WT (1-169) GppNHp/RAF1 RBD-3×FLAG (52-151)
T2 sequence (P01116 1-169 isoform P01116-2 limits assumed): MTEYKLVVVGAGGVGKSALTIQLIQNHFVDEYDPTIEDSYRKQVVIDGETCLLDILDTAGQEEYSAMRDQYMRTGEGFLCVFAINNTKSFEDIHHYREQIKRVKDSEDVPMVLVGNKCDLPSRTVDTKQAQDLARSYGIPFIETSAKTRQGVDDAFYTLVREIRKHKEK

[3] = tested on: KRAS G12V protein/effector signaling in SW620 cells; experiment: Cell-based pERK HTRF assay in SW620 cell; settings: Homo sapiens, SW-620, 1 h incubation
Method: pERK assay (Perkin Elmer) was used to determine the effectiveness of compounds in disrupting KRAS G12V protein/effector signaling in cells.
On Day 1, cells (SW620) were seeded into 96-well plates at 3×10^4 cells/well in 80 μL complete growth media (DMEM, 10% FBS).
On Day 2, cells were treated with compounds at 0.25% DMSO. The source plate was created with compounds diluted in media at 5-fold the final assay concentration. The compounds were run in a 9-point concentration curve starting at 10 μM, with a half-log dilution between concentrations. 20 μL was transferred onto the cell plates (final volume in wells was 100 μL). Plates were harvested after 1 h incubation by aspirating media and adding kit-supplied 1× supplemented lysis buffer to all wells (50 μL per well). Plates were then placed on a plate shaker and incubated at 850 rpm for an additional 30 min.
Antibody mixture solution was prepared by diluting aliquoted d2 and Eu Cryptate antibodies 1:20 in kit supplied detection buffer, and mixing the diluted antibodies solutions (1:1 v:v). Four μL of this solution was then added to a 384-well detection plate (Perkin Elmer; 6008230).
Samples were homogenized by pipetting up and down and then transferred (16 μL of cell lysates) from the 96-well cell culture plate to two wells of the HTRF 384-well detection plate containing the antibody solution. Plates were centrifuged (524 g for 1 min) and allowed to incubate between 4 and 24 h at room temperature. Maximum signal was reached after 4 h incubation time and remained stable over a period of 24 hours. Therefore, readings could be made between 4 and 24 h of incubation. Plates were centrifuged again (524 g for 1 min), then analyzed on the EnVision plate reader using the following settings: Excitation 320 nm, Bandwidth 75 nm; Emission 615 nm, Bandwidth 85 nm; Gain 100%; Flashes 100; Lag 60 μs.

[4] = tested on: KRAS G12D protein/effector signaling in GP2d cells; experiment: Cell-based pERK HTRF assay in GP2d cell; settings: 1 h, 60 min incubation
How it was run: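 GP2d cells (DMEM, 10% FBS) exposed 60 min to a 9-point half-log compound series at 0.25% DMSO, then lysed. Phospho-ERK quantified by HTRF with d2/Eu cryptate antibodies after 4–24 h at room temperature, ex 320/em 615 nm.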

[5] = target: T3, Avi-KRAS G12D (1-169) GppNHp/RAF1 RBD-3×FLAG (52-151) (Homo sapiens, UniProt P01116, G12D); experiment: Disrupting RAS-effector binding HTRF assay, Raf1 RBD-KRAS G12D-GppNHp; settings: PPI HTRF, 50 nM Avi-KRAS G12D GppNHp, compound titration 30-0.0045 μM; read-out: Raf1 RBD-KRAS G12D-GppNHp disruption
T3 construct: 50 nM Avi-KRAS G12D (1-169) GppNHp/RAF1 RBD-3×FLAG (52-151)
T3 sequence (P01116 1-169 isoform P01116-2 G12D limits assumed): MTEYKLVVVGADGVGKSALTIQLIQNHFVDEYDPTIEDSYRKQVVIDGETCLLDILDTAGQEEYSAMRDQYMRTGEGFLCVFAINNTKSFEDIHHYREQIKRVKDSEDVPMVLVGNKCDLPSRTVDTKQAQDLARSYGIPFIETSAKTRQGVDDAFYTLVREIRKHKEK

[6] = target: T4, Avi-KRAS G12V (1-169) GppNHp/RAF1 RBD-3×FLAG (52-151) (Homo sapiens, UniProt P01116, G12V); experiment: Disrupting RAS-effector binding HTRF assay, Raf1 RBD-KRAS G12V-GppNHp; settings: PPI HTRF, 50 nM Avi-KRAS G12V GppNHp, compound titration 30-0.0045 μM; read-out: Raf1 RBD-KRAS G12V-GppNHp disruption
T4 construct: 50 nM Avi-KRAS G12V (1-169) GppNHp/RAF1 RBD-3×FLAG (52-151)
T4 sequence (P01116 1-169 isoform P01116-2 G12V limits assumed): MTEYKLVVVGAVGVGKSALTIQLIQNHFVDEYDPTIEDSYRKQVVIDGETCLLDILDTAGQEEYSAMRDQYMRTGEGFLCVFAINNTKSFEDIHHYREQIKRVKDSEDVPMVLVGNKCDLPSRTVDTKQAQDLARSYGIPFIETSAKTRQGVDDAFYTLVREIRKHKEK

SMILES	IC50 [1] [µM]	IC50 [2] [µM]	IC50 [3] [µM]	IC50 [4] [µM]	IC50 [5] [µM]	IC50 [6] [µM]
N#Cc1c(N)sc2c(F)ccc(-c3c(C(F)(F)F)cc4c(N5CC6CCC(C5)N6)nc(OCCC5CCOCC5)nc4c3F)c12 [Compound 46]	> 10	1 to 10	> 10	≤ 0.1	0.1 to 1	> 10
N#Cc1c(N)sc2c(F)ccc(-c3c(C(F)(F)F)cc4c(N5CC6CCC(C5)N6)nc(OCC5CCOC5)nc4c3F)c12 (stereo not drawn) [Compound 47]	> 10	1 to 10	> 10	≤ 0.1	0.1 to 1	> 10
N#Cc1c(N)sc2c(F)ccc(-c3c(C(F)(F)F)cc4c(N5CC6CCC(C5)N6)nc(OCC5CCCOC5)nc4c3F)c12 (stereo not drawn) [Compound 48]	> 10	1 to 10	> 10	≤ 0.1	1 to 10	> 10
N#Cc1c(N)sc2c(F)ccc(-c3c(C(F)(F)F)cc4c(N5CC6CCC(C5)N6)nc(OCC5CCCCO5)nc4c3F)c12 (stereo not drawn) [Compound 49]	> 10	1 to 10	> 10	≤ 0.1	1 to 10	> 10
N#Cc1c(N)sc2c(F)ccc(-c3c(C(F)(F)F)cc4c(N5CC6CCC(C5)N6)nc(OCCC5CCOC5)nc4c3F)c12 (stereo not drawn) [Compound 50]	> 10	1 to 10	> 10	≤ 0.1	0.1 to 1	> 10
N#Cc1c(N)sc2c(F)ccc(-c3c(C(F)(F)F)cc4c(N5CC6CCC(C5)N6)nc(OCCC5CCCO5)nc4c3F)c12 (stereo not drawn) [Compound 51]	> 10	1 to 10	> 10	≤ 0.1	0.1 to 1	> 10
N#Cc1c(N)sc2c(F)ccc(-c3c(C(F)(F)F)cc4c(N5CC6CCC(C5)N6)nc(OCC5CC6CCC(C5)O6)nc4c3F)c12 (stereo not drawn) [Compound 52]	> 10	1 to 10	> 10	≤ 0.1	1 to 10	> 10
N#Cc1c(N)sc2c(F)ccc(-c3c(C(F)(F)F)cc4c(N5CC6CCC(C5)N6)nc(OCC5CCS(=O)(=O)CC5)nc4c3F)c12 [Compound 53]	> 10	0.1 to 1	> 10	≤ 0.1	0.1 to 1	1 to 10
CN1C(=O)CC[C@H]1COc1nc(N2CC3CCC(C2)N3)c2cc(C(F)(F)F)c(-c3ccc(F)c4sc(N)c(C#N)c34)c(F)c2n1 [Compound 54]	> 10	1 to 10	> 10	≤ 0.1	0.1 to 1	> 10
CN1CCC(COc2nc(N3CC4CCC(C3)N4)c3cc(C(F)(F)F)c(-c4ccc(F)c5sc(N)c(C#N)c45)c(F)c3n2)C1=O (stereo not drawn) [Compound 55]	1 to 10	0.1 to 1	> 10	≤ 0.1	0.1 to 1	1 to 10
CN1C[C@@H](COc2nc(N3CC4CCC(C3)N4)c3cc(C(F)(F)F)c(-c4ccc(F)c5sc(N)c(C#N)c45)c(F)c3n2)CC1=O [Compound 56]	1 to 10	0.1 to 1	> 10	≤ 0.1	0.1 to 1	1 to 10
CN1C(=O)CC[C@@H]1COc1nc(N2CC3CCC(C2)N3)c2cc(C(F)(F)F)c(-c3ccc(F)c4sc(N)c(C#N)c34)c(F)c2n1 [Compound 57]	> 10	1 to 10	> 10	≤ 0.1	0.1 to 1	> 10
CN(c1nc(OCC2CCOCC2)nc2c(F)c(-c3ccc(F)c4sc(N)c(C#N)c34)c(C(F)(F)F)cc12)C1CCNCC1 [Compound 61]	> 10	> 10	> 10	> 1	1 to 10	> 10
CN(c1nc(OCC2CCOCC2)nc2c(F)c(-c3ccc(F)c4sc(N)c(C#N)c34)c(C(F)(F)F)cc12)[C@@H]1CCCNC1 [Compound 62]	> 10	> 10	> 10	> 1	1 to 10	> 10
CN(c1nc(OCC2CCOCC2)nc2c(F)c(-c3ccc(F)c4sc(N)c(C#N)c34)c(C(F)(F)F)cc12)[C@H]1CCCNC1 [Compound 63]	> 10	> 10	> 10	> 1	> 10	> 10
N#Cc1c(N)sc2c(F)ccc(-c3c(C(F)(F)F)cc4c(N5CC6CCC(C5)N6)nc(OCCc5cnoc5)nc4c3F)c12 [Compound 65]	> 10	1 to 10	> 10	≤ 0.1	0.1 to 1	> 10
